Assay results reported in patent US5157023A, “Antipyretic and anti-inflammatory lys pro val compositions and method of use” (priority 1991, dated 1992).
Peptide text beside a SMILES is read from it.

How the values were obtained:
[1] = test system: leukocytic pyrogen-induced fever; assay: in vivo rabbit pyresis assay (leukocytic pyrogen-induced fever); parameters: species or system New Zealand white rabbits; conditions: for decrease in fever, percent reduction of the area under the control fever curve: intraventricular (central), 30 min after pyrogen, over 1.5 hours; for fever reduction: 1.5 hour period after injection of leukocytic pyrogen
Procedure: Leukocytic pyrogen is a molecule capable of producing transient fever in mammals which is produced by incubating rabbit leukocytes with Salmonella typhosa endotoxin. More specifically, to produce leukocytic pyrogen, donor rabbits were first sacrificed by decapitation. Blood was collected in a heparinized pryrogen-free beaker. Heparinized 50-ml glass centrifuge tubes were filled 3/4 full with whole blood, saline was added to fill each tube, and the solution was gently mixed. The tubes were then centrifuged at low speed for 20 min. The buffy coat was drawn off and placed in pyrogen-free flasks. Lactate Ringer's solution equal in volume to one-half that of the red cell layer, was added along with Salmonella typhosa endotoxin (Difco, No. 0901) also in Ringer's solution (1 ug/ml), to the buffy coat. The mixture was incubated at 38~C in a shaking water bath for 4 hours. The solution was centrifuged, filtered (Nalgene, 0.20 microns), and the leukocytic pyrogen-containing filtrate was stored at 4~C. Samples of leukocytic pyrogen were heated to 70~C for 2 hours and injected intravenously to test for endotoxin contamination.
Injections were 50 ul in volume and were followed by a 20 ul saline flush. Intravenous injections were made via the marginal ear vein. Intravenous leukocytic pyrogen injections were 0.07 ml of a stock solution made up of a mixture of leukocytic pyrogen derived from 4 donors. When injected, leukocytic pyrogen stock solution was diluted with nonpyrgenic isotonic saline. Injections were made with commercial nonpyrogenic syringes. Glassware was washed with chromic acid, rinsed with deionized water and heated to 200~C for a minimum of 2 hours to insure that it was pyrogen free.
Adult New Zealand white rabbits were used for the development of an antipyretic assay. The rabbits were housed individually in a 21-23~Cenvironment with a 12 hour light/dark cycle; food and water were available ad libitum. […]. Rabbits were placed in a Kopf rabbit stereotaxic instrument and a stainless steel cannula (No. 201, David Kopf Instruments)was inserted into a lateral ventricle at a point 1.0 mm anterior to the bregma and 2.7 mm lateral to the midline. The cannula was lowered until cerebrospinal fluid appeared inside the well of the cannula. Stainless steel screws and dental acrylic were used to anchor the cannula to the caluarium. Benzathine penicillin G (Bicillin, Wyeth Laboratories) was given post-operatively (150,000 units intramuscularly).
(§1) Experimental rabbits that were to be used in the antipyresis study were restrained in conventional holders and a thermistor probe (Yellow Springs International, No. 701) was inserted about 100 mm into the rectum and taped to the tail. In certain experiments, another thermistor probe (Yellow Springs International, No. 709) was attached to the dorsal surface of the ear. Temperature recordings were made every 10 minutes via a MINC 11 online computer connected to a digital temperature recorder (Datalogger, United Systems Corp.) At least 1 hour was allowed after the probes were inserted before injections were made, and all experiments were separated by at least 48 hours. Experiments were run in an environmental chamber at 23~C.
The average thermal response, the mean change in temperature (~C) over the duration of the response measured in hours, was calculated for each response and the paired t-test was used for statistical analysis of the data. The time period over which the experimental anti-pyretic temperature response was determined was generally set by the duration of the control response for the individual animal. The control response begins with the first deviation from baseline temperature and continues until the temperature returns to baseline or to the point nearest the baseline within 5 hours. The mean change in temperature for each 10 minute intervals during this time period are summed and divided by the total number of 10 minute periods. […]

normal body temperature = assay: body temperature of afebrile rabbits; type: in vivo
Procedure: as §1
Injections of the tripeptide were given 30 minutes after the pyrogen, into the intraventricular cannula. […] Decreases in fever, calculated as percent reduction of the area under the control fever curve over the apparent duration of action of the peptide (1.5 hours), were 24%, 31%, and 48% for the 0.5, 1.0, and 2.0 milligram doses, respectively. Similarly, intravenous administration of 2, 20 and 200 milligrams of the tripeptide reduced fever 34, 27 and 67% , respectively, during the 1.5 hour period after injection of the leukocytic pyrogen. Control saline injections, centrally administered, caused no significant reduction in body temperature.

[2] = test system: carrageenan-induced swelling of rat paws; assay: carrageenan/rat paw edema assay; type: in vivo, male Sprague-Dawley rats; conditions: for overall reduction of carrageenan-induced swelling relative to hydrocortisone: approximately equal weights, intraperitoneal
Procedure: A second in vivo bioassay for anti-inflammatory activity was conducted in which the action of the tripeptide was compared to that of hydrocortisone. In this assay, the two agents were given at similar doses and tested for their independent ability to inhibit carrageenan-induced swelling of rats paws. This assay, the rat paw edema test, was conducted generally as it is typically performed in the art, for example, as described by Winter et al. (1962), Proc. Soc. Exp. Biol. Med., 111:544 or in U.S. Pat. No. 4,150,137.
Briefly, the assay was performed as follows. Each of twenty-four male Sprague-Dawley rats was assigned to one of four groups: tripeptide treatment and controls (matched according to body weight and initial paw volume), hydrocortisone treatment and matched controls. The volume of the right rear paw of the test and control animals was determined using standard procedures and a mercury displacement volumetric technique. An intraperitoneal injection of the tripeptide (Ac-Lys-Pro-Val-NH2, 100 mg/kg, N=6), of hydrocortisone (100 mg/kg, N=6), or saline (matched volume, N=12) was given to each rat. One hour later 0.5 ml of 1% lambda carrageenan in saline solution was injected into the right rear paw of the animals and the paw volume was again recorder (baseline measure). […] Thereafter paw volume was measured each hour for out hours. For comparison of the effects of the two treatments, paw volume of experimental animals measured at hourly intervals was expressed as a percentage of the volume change of their respective matched controls.

[3] = test system: histamine-mediated increase in capillary permeability; assay: skin-blueing test (Sparrow/Wilhelm assay), histamine-induced blue weals; type: in vivo, New Zealand white rabbits; conditions: for relative intensity of histamine-induced blue weals, experimental (E) vs control (C): scored 30 minutes after histamine
Text: This model relies on the principal that localized, subcutaneous injections of histamine will result in a localized increase in capillary permeability. When the test animal has been pretreated with blue dye intravenously, the localized histamine injections will elicit blue-colored "weals" around the injection site. Thus, by preadministration of an effective anti-inflammatory agent, the blue color of the histamine-induced weals will be much less pronounced, with the amount of color reduction being dependent on the relative amount and/or potency of the anti-inflammatory agent used.
Non-moulting New Zealand white rabbits were used for the sparrow/Wilhelm assay. The skin of the rabbits back was closely clipped 1-2 days previous to the experiment, but not dipilated, and the rabbits were kept warm until tested. Various amounts of the protected tripeptide (diacetyl-L-lys-l-Pro-L-Val-NH2) were injected intravenously into an ear vein approximately 15 minutes prior to intravenous injection of blue dye. Control rabbits received sham injections. Fifteen minutes following injection of the agent or sham, the rabbits received approximately 30 mg/kg of Pontamine blue dye as a 2.5% solution in 0.45% saline, into an exposed vein.
Immediately following dye injections, histamine was injected intradermally in a 0.10 ml volume (1.25 mg histamine 0.1 ml volume) at several sites on each side of the spine. In all, one vertical row of six injections were made on each side of the spine. The relative intensity of the resultant blue weals were scored by an independent observer 30 minutes after histamine injection.

## CC(C)[C@H](NC(=O)[C@@H]1CCCN1C(=O)[C@@H](N)CCCCN)C(=O)O [L-Lys-L-Pro-L-val] (H-Lys-Pro-Val-OH)
[1]; 0.5 milligram dose
  decrease in fever, percent reduction of the area under the control fever curve: 24%
[1]; 1.0 milligram dose
  decrease in fever, percent reduction of the area under the control fever curve: 31%
[1]; 2.0 milligram dose
  decrease in fever, percent reduction of the area under the control fever curve: 48%
[1]; central administration
  duration of (antipyretic) action: 1.5 h
[1]; intravenous 2 milligrams
  fever reduction: 34%
[1]; intravenous 20 milligrams
  fever reduction: 27%
[1]; intravenous 200 milligrams
  fever reduction: 67%
Normal body temperature; injections of 200 milligrams
  reduction in body temperature of afebrile rabbits: no reduction in body temperature

## [Cl][Cu][Cl] [copper ions, cupric chloride]
Normal body temperature; doses used to enhance the protected peptide
  effect of copper ions alone on normal temperature: no effect on normal temperature

## C[C@]12CCC(=O)C=C1CC[C@@H]1[C@@H]2[C@@H](O)C[C@@]2(C)[C@H]1CC[C@]2(O)C(=O)CO [hydrocortisone, reference compound]
[2]; 100 mg/kg intraperitoneal, first hour after carrageenan, p<0.05 Mann-Whitney vs tripeptide
  inhibition of paw swelling in the first hour: markedly inhibited swelling

## diacetyl-L-Lysyl-L-Prolyl-L-Valyl-NH2 [protected tripeptide]
[1]; 0.5 mg, central administration
  reduction of fever induced by intravenous leukocytic pyrogen: more than 50%
[1]; central administration
  antipyretic potency relative to the unprotected tripeptide: at least four
  duration of (antipyretic) action: at least four
[1]; rabbit pyresis assay, summary statement
  activity relative to the unprotected species on a weight basis: approximately twice
[3]; 0.625 ug/kg body weight intravenously
  relative intensity of histamine-induced blue weals, experimental (E) vs control (C): No difference
[3]; 1.25 ug/kg body weight intravenously
  relative intensity of histamine-induced blue weals, experimental (E) vs control (C): E lighter than C
[3]; 5 ug/kg body weight intravenously
  relative intensity of histamine-induced blue weals, experimental (E) vs control (C): E lighter than C
[3]; 10 ug/kg body weight intravenously
  relative intensity of histamine-induced blue weals, experimental (E) vs control (C): E lighter than C
[3]; intravenous
  lowest intravenous dosage reducing histamine-mediated increase in capillary permeability: 1.25 ug/kg body weight
[3]; rabbit, in vivo
  lowest dosage eliciting a demonstrable reduction in histamine-mediated vascular permeability to vital dyes: about 1 microgram/kilogram
[2]; 100 mg/kg intraperitoneal each, 1 h before carrageenan, hours after the first hour, p>0.20
  inhibition of paw edema compared with hydrocortisone: no significant difference
[2]; listed as diacetyl-Lys-Pro-Val-NH2
  overall reduction of carrageenan-induced swelling relative to hydrocortisone: roughly equivalent
[2]; listed as protected Lys-Pro-Val tripeptide
  overall reduction of carrageenan-induced swelling relative to hydrocortisone: commensurate with hydrocortisone
